Source: patent publication US20050124618A1, “Methods of modulating angiogenesis and cancer cell proliferation” (priority 2003, published 2005)
“Also recorded” adds a separate entry of the source.

Legend:
9L rat gliosarcoma cells = assay: 9L cell proliferation assay (cell counting); format: cell-based
Procedure: Culture Conditions: 9L rat gliosarcoma cells were purchased from ATC (Gaithersburg, Md.) and were maintained in DMEM (Invitrogen) supplemented with 10% heat-inactivated fetal bovine serum (FBS), penicillin (10 IU/ml), streptomycin (10 μg/ml) and 10% non-essential amino acids (all purchased from Invitrogen). Cells were maintained at 37° C. in a humidified incubator containing 5% CO2. They were grown in medium containing 10% FBS, which was then replaced with serum-free medium (give type and source) where 9L cells grow exponentially.
Cell Proliferation Assays: Proliferation studies were performed with cultures plated at a density that ensured exponential growth for at least 5 days. Growth medium were generally replaced by serum free medium 24 hr after plating. […] The concentration of the ethanol added to the media never exceeded 0.1%. Cells were harvested by exposure to a solution of 0.05% Trypsin/EDTA and counted using a hemocytometer.

U251 human glioma cells = assay: Flow cytometry of cell cycle distribution in U251 cells; format: cell-based; conditions: 10 μM HET0016, 24 and 48 hr
Procedure: Flow Cytometry: Cells were cultured in 100-mm dishes at densities that ensured exponential growth at the time of harvest. The harvesting and processing protocols used to detect DNA by flow cytometry with propidium iodide (PI) have been described previously (Reiners et al., Carcinogenesis 20: 1561-1566, 1999). Cells were analyzed with a Becton Dickinson FACScan in the Wayne State University Flow Cytometry Core Facility, Detroit, Mich. Percentages of cells in the G0/G1, S, and G2/M stages of the cell cycle were determined with a DNA histogram-fitting program (MODFIT; Verity Software, Topsham, Me.). A minimum of 10^4 events/sample were collected.

20-HETE = 20-HETE formation in electrically stimulated skeletal (TA) muscle of rats; format: in vivo, rat
Procedure: Experimental protocols and tissue preparation: After a 24-h recovery period, the implanted stimulator was activated by momentary closure of the magnetic reed switch using a small hand-held magnet. […] Contractions of the extensor digitorum longus (EDL) and tibialis anterior (TA) muscles were automatically initiated at 9 AM each day and sustained for 8 h/day over a consecutive 7-day period. At the end of the stimulation period, the animals were euthanized by an overdose of pentobarbital sodium (100 mg/kg ip), and the EDL and TA muscles were harvested for analysis as previously described (Greene A S et al., Hypertension 15: 779-783, 1990; and Parmentier J H et al., Hypertension 37: 623-629, 2001).
The rats were divided in four groups. […] This dose was chosen based on our previous results (Kehl F et al., Am J Physiol Heart Circ Physiol 282: H1556-H1565, 2002).
To determine the contribution of VEGF to the angiogenesis induced by electrical stimulation, six rats in group 3 were treated with 3 mg/kg ip injections of a monoclonal VEGF-neutralizing antibody (Texas Biotechnology; Houston, Tex.) during the period of electrical stimulation. The protocol for administration of VEGF-neutralizing antibody was modified from Zheng W et al. (Circ Res 85: 192-198, 1999), and this dose was based on our previous results (Amaral S L et al., Microcirculation 8: 57-67, 2001). After the stimulation period was started, the rats received intraperitoneal injections on days 3, 5, and 7 (0.6 mg/100 g).
Muscle preparations for measurement of 20-HETE: The 100-200 mg of frozen TA muscle were homogenized in a solution containing 1 ml of acidified water and 50 μl of an internal standard, WIT-002, which was synthesized and kindly provided by Taisho Pharmaceutical. Ethyl acetate (3 ml, Fisher Scientific; Pittsburgh, Pa.) was added to the mixture and gently vortexed. The homogenized tissues were then centrifuged at 3,000 revolutions/min for 2 min. With the use of a glass Pasteur pipet, the top layer was removed and transferred to a sterile glass vial, and the samples were dried under nitrogen and stored at −80° C.
Labeling of samples and fluorescent detection of 20-HETE: Detection of 20-HETE was performed as previously described (Ma Y H et al., Am J Physiol Regul Integr Comp Physiol 267: R579-R589, 1994). Samples, which were extracted and dried under argon, were resuspended in 20 μl of acetonitrile containing 36.4 mM 2-(2,3-napthalimino)ethyl trifluoromethanesulfonate, and N,N-diisopropylethylamine (10 μl) was added as a catalyst. The sample was reacted for 30 min at room temperature, dried under argon, resuspended in 1 ml of 40% acetonitrile-water, and applied to a Sep-Pak Vac column. The column was washed with 6 ml of 50% acetonitrile-water solution to remove unreacted dye, eluted with 500 μl of ethyl acetate, dried under argon, and resuspended in 100 μl of the HPLC mobile phase [methanol-water-acetic acid, 82:18:0.1 (vol/vol)]. A 25-μl aliquot of the derivatized sample was separated on a 4.6×250-mm Symmetry C18 reverse-phase HPLC column (Waters) isocratically at a rate of 1.3 ml/min using methanol-water-acetic acid (82:18:0.1 (vol/vol)) as the mobile phase. Fluorescence intensity monitored using an in-line fluorescence detector (model number L-7480, Hitachi; Naperville, Ill.) at medium gain sensitivity. The amount of 20-HETE in the sample was determined by comparing the area of the 20-HETE peak with that of the internal standard (WIT-002).

For CCCCc1ccc(N=CNO)c(C)c1 [HET0016, N-hydroxy-N′-(4-butyl-2 methylphenyl) formamidine], the “reduction of proliferation of 9L cells” value (9L rat gliosarcoma cells; 10 μM HET0016, 48 hrs) was 60%, the “effect on EGF-stimulated growth of 9L cells at 24 hr” value (9L rat gliosarcoma cells; EGF 200 ng/ml + 10 μM HET0016, 24 hr) was “prevented the effects of EGF on cells growth” and the “effect on EGF-stimulated growth of 9L cells at 48 hr” value (9L rat gliosarcoma cells; EGF 200 ng/ml + 10 μM HET0016, 48 hr) was “reduced the number of cells”. The “effect on EGF-induced growth of 9L cells” value (9L rat gliosarcoma cells; EGF 200 ng/ml + HET0016) was “almost abolished”, the “inhibition of 9L cell growth” value (9L rat gliosarcoma cells; HET0016 10 nM) was “some degree of inhibition of cell growth was apparent even though the difference from control was not significant” and the “cytotoxicity to 9L cells (cell detachment, dead cells)” value (9L rat gliosarcoma cells; HET0016 100 μM) was “may have a direct cytotoxic effect”. For the same compound, the “effect on 9L cell number” value (9L rat gliosarcoma cells; HET0016 100 μM) was “dramatic reduction in cell number”, the “reduction of 9L cell number” value (9L rat gliosarcoma cells; HET0016 1 and 10 μM, both 24 and 48 hr) was 30-40% and the “dose dependence of inhibition of 9L growth” value (9L rat gliosarcoma cells; various concentrations of HET0016) was “decreased the proliferation of 9L cells in a dose-related manner; also recorded: produced a dose dependent inhibition”. The “effect on cell cycle distribution” value (U251 human glioma cells) was “arresting the cell cycle at G0/G1; also recorded: Cells containing G0/G1 DNA accumulated”, the “effect on the increase of 20-HETE formation induced by electrical stimulation” value (20-HETE; 7 days of electrical stimulation, chronic treatment) was “completely blocked” and the “20-HETE formation in skeletal muscle, unstimulated side” value (20-HETE; rats treated 7 days, TA muscle) was 110.26±28.36 ng/g muscle. The “20-HETE formation in skeletal muscle, stimulated side” value (20-HETE; rats treated 7 days, TA muscle, 7 days electrical stimulation) was 102.1±22.3 ng/g muscle and the “effect on basal formation of 20-HETE in skeletal muscle” value (20-HETE; treatment for 7 days) was “did not change the basal formation”.
